The text below walks through data of patent publication US20240239790A1, “7-Morpholino-1,6-Naphthyridin-5-yl Derivatives and Pharmaceutical Compositions Thereof Useful as DNA-PK Inhibitor” (adMare Therapeutics Society, priority 2021, published 2024).

In experiment [1] the test system is FaDu tumour xenograft. Briefly: Clonogenic Survival, FaDu tumour xenograft-bearing Rag2M mice, compound ± radiation (CS-ER). It is filed as in vivo, mouse. The procedure:
FaDu tumour xenograft-bearing Rag2M mice were treated with single administrations of test compounds at indicated doses±radiation as indicated, at time 0.
Mice were irradiated at 1 h post compound administration (unless otherwise indicated), with 300 KV X-rays and a 10 mA current from a Precision XRAD 300 machine (USA) with a beam-hardening filter (2 mm Al+0.25 mm Cu+0.75 mm Sn) and an adjustable site to specimen distance (SSD) at a dose of 8-10 Gy, delivered at a rate of ˜1.05 Gy/min.
Mice were terminated at times after irradiation as indicated, and tumour tissues excised. A portion of tumour approximately 300-500 mg was briefly minced using sterile scissors and placed in a pre-weighed gentleMACS C tube (Miltenyi Biotec cat #130-093-237) and weighed with combined tumour+tube mass recorded. A 5 mL aliquot of enzyme cocktail comprising of trypsin/DNase/collagenase/EDTA-Na2 in PBS (1 mg/ml trypsin+0.26 mg/ml DNase+0.21 mg/ml collagenase+2 mM EDTA-Na2) was added to the tube, which is then run on the gentleMACS Dissociator disaggregation system. Tubes were then incubated at 37° C. and continually rotated for 20 min before again running on the gentleMACS Dissociator program. Samples were then diluted with 5 ml MEM medium containing 5% FBS and filtered (Falcon cell strainer 100 μm, cat #352360). After centrifugation (1100 rpm for 6 minutes at 4° C.) supernatant was aspirated and the cells resuspended in 4 ml cold growth medium (MEM+10% FBS)+50 ul DNase (5 mg/ml DNase solution). Cell numbers were counted from the same cell solution using a hemacytometer. Appropriate dilutions (control: 10,000 cells/ml; 8Gy: 400,000 cells/ml; drug+radiation treated; 500,000 cells/ml) were made and cells then plated in triplicate: control: 100 μl and 300 μl (1000 and 3000 cells/6 cm tissue culture plate); 8Gy: 30 μl, 105 μl and 350 μl (12000, 42000 cells/6 cm plates and 140000 cells/10 cm plate); drug+8Gy: 70 μl, 300p, 1.2 ml (35000 and 150000 cells/6 cm plates and 600000 cells/10 cm plates—only duplicate). Plates were incubated at 37° C. (in a 5% CO2, 5% O2 and balance N2 environment) for 14 days. For a final and accurate automated live-cell counting a solution of Hoechst33342 (0.01 mg/ml)+Propidium Iodide (0.004 mg/ml) in 0.9% saline was mixed with an appropriate cell number dilution of the samples in 96 well plates (50 ul staining solution+50 ul cell suspension of 10000 cells/ml) and images are taken of the wells and cell numbers are calculated by a computer program.
After 14 days plates were removed from the incubator, rinsed with PBS and stained with cold 2 g/L Malachite green oxalate salt solution (Sigma-Aldrich, cat #M6880) for 30 minutes at room temperature. Plates were rinsed with distilled water and dried. Pictures were obtained of the plates and colonies consisting of 50 or more cells were counted using a Stuart Scientific colony counter.
All plates with colonies were analyzed except when colony numbers were so high that the edges of individual colonies could not be determined accurately. Plating efficiency (PE) of each tumour sample was calculated first: PE is a ratio of the number of colonies to the number of cells seeded (sum of all the colonies countable in all the plates of the same sample divided by the sum of cells plated in the same plates). The PE of control tumours was averaged for the calculation of surviving fraction (SF): SF is based on the number of colonies formed in drug and/or radiation treated cells relative to that of untreated control (PE of treated tumor sample divided by PE of control). All treated data points were compared separately to the average of the controls. Finally a Clonogenic Survival Enhancement Ratio (CS-ER) was calculated: the SF of irradiated control groups were divided by the SF of treatment groups to determine treatment group-specific CS-ER values, and these were assigned scores based on defined response ranges: values>6=A, 4-6=B, <4=C.

Experiment [2] deals with FaDu tumour xenograft. The experiment in a line: Tumour Growth Delay, FaDu tumour xenograft-bearing animals, compound ± radiation (TGD-ER). The note with it: PO. It counts as in vivo. As to the method:
FaDu tumour xenograft-bearing animals were monitored for tumour growth and once average tumour size reached approximately 100-250 mm3, animals were assigned to treatment cohorts using stratified randomization. […]
For BID dosing regimens, at 8 h following the first injection, animals were again administered with test compound at the same dose as their previous administration. Animals were weighed and had tumours measured using calipers three times weekly until the endpoint of maximum tumour volume, 1000 mm3, was reached and animals were euthanized. Tumour volumes were calculated according to the equation L×W^2/2 with the length (mm) being the longer axis of the tumour; in the case that no tumour was palpable, tumour volumes were recorded as 0 mm^3.
Data were calculated as tumour growth normalized to day 0 measurements, with time to tumour doubling determined. Average time to tumour doubling for each group was used to determine a Tumour Growth Delay Enhancement Ratio (TGD-ER): the time to doubling for treatment groups were divided by the time to doubling for irradiation-alone groups to determine group-specific TGD-ER values, and these were assigned scores based on defined response ranges: values>2.5=A, 1-2.5=B, <1=C.

Regarding `CN(C)C(=O)COc1cnc(N[C@H]2CC[C@@H](Oc3nc(N4CCOCC4)cc4ncccc34)CC2)nc1` [Compound 54, N,N-Dimethyl-2-((2-(((1s,4s)-4-((7-morpholino-1,6-naphthyridin-5-yl)oxy)cyclohexyl)amino)pyrimidin-5-yl)oxy)acetamide], the “CS-ER Range Score” value in the experiment on FaDu tumour xenograft [1] (100 mpk + 10 Gy, 0.5 h) is on record as “B (4-6=B)”; in the experiment with FaDu tumour xenograft [1] (100 mpk + 10 Gy, 4 h) it was “A (values>6=A)”; with FaDu tumour xenograft [1] (100 mpk + 10 Gy, 8 h), “B (4-6=B)”; in the experiment with FaDu tumour xenograft [1] (100 mpk + 10 Gy, 24 h), “A (values>6=A)”. The “TGD-ER Range Score” value is given as “B (1-2.5=B)” in the experiment on FaDu tumour xenograft [2] (10 mpk + 10 Gy), “A (values>2.5=A)” in the experiment with FaDu tumour xenograft [2] (30 mpk + 10 Gy) and “B (1-2.5=B)” in the experiment on FaDu tumour xenograft [2] (100 mpk + 10 Gy).

Consider `O=C(COc1cnc(N[C@H]2CC[C@@H](Oc3nc(N4CCOCC4)cc4ncccc34)CC2)nc1)N1CCOCC1` [Compound 61, 1-Morpholino-2-((2-(((1s,4s)-4-((7-morpholino-1,6-naphthyridin-5-yl)oxy)cyclohexyl)amino)pyrimidin-5-yl)oxy)ethan-1-one], for which the “CS-ER Range Score” value is “C (<4=C)” with FaDu tumour xenograft [1] (30 mpk + 8 Gy, 2 h) and “B (4-6=B)” in the experiment with FaDu tumour xenograft [1] (30 mpk + 8 Gy, 4 h). Also, the “TGD-ER Range Score” value is given as “A (values>2.5=A)” in the experiment with FaDu tumour xenograft [2] ((30 mpk + 2 Gy) Q5D) and “C (<1=C)” in the experiment on FaDu tumour xenograft [2] ((30 mpk) Q5D).

Consider `CN1CCN(CCOc2cnc(N[C@H]3CC[C@@H](Oc4nc(N5CCOCC5)cc5ncccc45)CC3)nc2)CC1` [Compound 69, 5-(2-(4-Methylpiperazin-1-yl)ethoxy)-N-((1s,4s)-4-((7-morpholino-1,6-naphthyridin-5-yl)oxy)cyclohexyl)pyrimidin-2-amine], for which, in the experiment on FaDu tumour xenograft [1] (30 mpk + 8 Gy, 4 h), the “CS-ER Range Score” value was “C (<4=C)”. Besides, the “TGD-ER Range Score” value in the experiment on FaDu tumour xenograft [2] (30 mpk + @4 h 10 Gy) is recorded as “C (<1=C)”; in the experiment with FaDu tumour xenograft [2] (30 mpk BID + 10 Gy) it was “B (1-2.5=B)”; in the experiment on FaDu tumour xenograft [2] (100 mpk + @4 h 10 Gy) it was “B (1-2.5=B)”; in the experiment on FaDu tumour xenograft [2] ((30 mpk + 2 Gy) Q5D) it was “A (values>2.5=A)”; with FaDu tumour xenograft [2] ((30 mpk) Q5D), “C (<1=C)”.

With `O=C(COc1cnc(N[C@H]2CC[C@@H](Oc3nc(N4CCOCC4)cc4ncccc34)CC2)nc1)N1CCC1` [Compound 75, 1-(Azetidin-1-yl)-2-((2-(((1s,4s)-4-((7-morpholino-1,6-naphthyridin-5-yl)oxy)cyclohexyl)amino)pyrimidin-5-yl)oxy)ethan-1-one], the “CS-ER Range Score” value in the experiment on FaDu tumour xenograft [1] (30 mpk + 8 Gy, 2 h) is given as “B B (4-6=B)”; in the experiment with FaDu tumour xenograft [1] (30 mpk + 8 Gy, 4 h), “B B (4-6=B)”. Moreover, the “TGD-ER Range Score” value with FaDu tumour xenograft [2] (30 mpk BID + 10 Gy) was “B (1-2.5=B)”.

As to `CN(C)C(=O)Cn1ccc2nc(N[C@H]3CC[C@@H](Oc4nc(N5CCOCC5)cc5ncccc45)CC3)ncc21` [Compound 86, N,N-Dimethyl-2-(2-(((1s,4s)-4-((7-morpholino-1,6-naphthyridin-5-yl)oxy)cyclohexyl)amino)-5H-pyrrolo[3,2-d]pyrimidin-5-yl)acetamide], the “CS-ER Range Score” value is “B B (4-6=B)” with FaDu tumour xenograft [1] (30 mpk + 8 Gy, 2 h) and “B B (4-6=B)” with FaDu tumour xenograft [1] (30 mpk + 8 Gy, 4 h). Moreover, the “TGD-ER Range Score” value was “B (1-2.5=B)” in the experiment with FaDu tumour xenograft [2] (30 mpk BID + 10 Gy), “A (values>2.5=A)” with FaDu tumour xenograft [2] ((30 mpk + 2 Gy) Q5D) and “B (1-2.5=B)” with FaDu tumour xenograft [2] ((30 mpk) Q5D).

Turning to `CN(C)C(=O)Cn1c(=O)n(C2CCOCC2)c2nc(N[C@H]3CC[C@@H](Oc4nc(N5CCOCC5)cc5ncccc45)CC3)ncc21` [Compound 97, N,N-Dimethyl-2-(2-(((1s,4s)-4-((7-morpholino-1,6-naphthyridin-5-yl)oxy)cyclohexyl)amino)-8-oxo-9-(tetrahydro-2H-pyran-4-yl)-8,9-dihydro-7H-purin-7-yl)acetamide], the “CS-ER Range Score” value is “C (<4=C)” in the experiment on FaDu tumour xenograft [1] (30 mpk + 8 Gy, 2 h) and “B (4-6=B)” in the experiment with FaDu tumour xenograft [1] (30 mpk + 8 Gy, 4 h).

As to `CN(C)C(=O)COc1ccc(C(=O)N[C@H]2CC[C@@H](Oc3nc(N4CCOCC4)cc4ncccc34)CC2)cn1` [Compound 117, 6-(2-(dimethylamino)-2-oxoethoxy)-N-((1s,4s)-4-((7-morpholino-1,6-naphthyridin-5-yl)oxy)cyclohexyl)nicotinamide], the “CS-ER Range Score” value with FaDu tumour xenograft [1] (30 mpk + 8 Gy, 2 h) was “C (<4=C)”; with FaDu tumour xenograft [1] (30 mpk + 8 Gy, 4 h) it was “B (4-6=B)”.

In the case of `O=S(=O)(CF)Nc1cnc2cc(N3CCOCC3)nc(O[C@H]3CC[C@@H](Nc4ncccn4)CC3)c2c1` [Compound 192, 1-fluoro-N-(7-morpholino-5-(((1s,4s)-4-(pyrimidin-2-ylamino)cyclohexyl)oxy)-1,6-naphthyridin-3-yl)methanesulfonamide], the “CS-ER Range Score” value with FaDu tumour xenograft [1] (30 mpk + 8 Gy, 2 h) was “A (values>6=A)”; in the experiment with FaDu tumour xenograft [1] (30 mpk + 8 Gy, 4 h), “B (4-6=B)”.
